From US7223754B2, “Thiazolidinone, oxazolidinone, and imidazolone derivatives for treating lower urinary tract and related disorders” (Dynogen Pharmaceuticals, Inc., priority 2003, dated 2007)

Legend:
[1] = system: Female Sprague-Dawley rats; settings: rat, in vivo
HVA calcium channels = assay type: cell-based, rat; settings: n=4; 1 µM

Row | Substance | bladder capacity versus irritation control, Dunn's MCT [1] | directly measured bladder capacity, % of control values [1] | effects on other micturition parameters, such as voiding efficiency [1] | intermicturition interval versus irritation control (AA/Veh 3), Dunn's multiple comparison test [1] | intermicturition interval, % of pre-irritation control values [1] | calcium current amplitudes, % of control amplitudes (HVA calcium channels)
1 | ω-Conotoxin MVIIA | significantly different than irritation control | 69% | no untoward effects on other micturition parameters | significantly different than irritation control | 81% | –
2 | Omega-conotoxin GVIA | – | – | – | – | – | 72.8±1.6%
